Laboratory results: patent US10307355B2, “N-aralkylcarbonyldiamine compounds and personal care compositions comprising the same” (Conopco, Inc., priority 2015, dated 2019)

Biological target: T1, human M3 receptor (Homo sapiens, UniProt P20309)
T1 construct: expressed in transfected cells; host or cells: CHO cells (membrane suspension)
Test: Muscarinic 3 receptor binding assay (3H-scopolamine displacement, CHO cell membranes)
Details: inhibition of 3H-scopolamine binding to CHO cell suspension expressing the human M3 receptor
Description: The muscarinic 3 receptor binding assay was adapted from Perkin Elmer. […] Atropine (Sigma-Aldrich, St. Louis, Mo.) was used as a positive control. […] The binding reactions were terminated by filtering through the GFC plates and washing & filtering with ice-cold phosphate saline buffer (5×100 μL). Once the filters were dry, microscint scintillation cocktail (100 μL) was added to each well, allowed to sit for 20 min and the plates analyzed using a TopCount scintillation counter. […] Curve fitting of % inhibition versus concentration using Excell software allowed determination of IC50 values for test compounds.

T1 sequence (P20309 whole entry): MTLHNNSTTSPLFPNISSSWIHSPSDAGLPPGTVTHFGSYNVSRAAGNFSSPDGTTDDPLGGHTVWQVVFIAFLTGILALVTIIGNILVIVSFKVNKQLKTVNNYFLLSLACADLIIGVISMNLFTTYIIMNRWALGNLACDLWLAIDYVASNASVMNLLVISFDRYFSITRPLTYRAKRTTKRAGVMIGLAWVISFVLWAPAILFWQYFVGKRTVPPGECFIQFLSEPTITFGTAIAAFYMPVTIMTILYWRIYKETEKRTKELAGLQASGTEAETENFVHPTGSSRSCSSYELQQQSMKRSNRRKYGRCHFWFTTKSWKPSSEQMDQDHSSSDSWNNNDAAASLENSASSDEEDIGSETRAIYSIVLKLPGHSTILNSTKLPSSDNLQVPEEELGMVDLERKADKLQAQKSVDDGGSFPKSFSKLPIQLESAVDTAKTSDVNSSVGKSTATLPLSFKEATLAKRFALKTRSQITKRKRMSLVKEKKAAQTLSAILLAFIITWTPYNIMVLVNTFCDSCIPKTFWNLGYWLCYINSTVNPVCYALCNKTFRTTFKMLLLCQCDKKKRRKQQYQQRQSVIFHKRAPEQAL

Q: How did the IC50 turn out when `CN(C)CCN(C)C(=O)C(c1ccccc1)C1CCCC1` (stereo not shown) [Compound 3c] was run?
A: The IC50 was 3.3 µM.
